The target in assay [1] is T1, human CRTH2 (Homo sapiens, UniProt Q9Y5Y4).
T1 sequence (Q9Y5Y4 1-395): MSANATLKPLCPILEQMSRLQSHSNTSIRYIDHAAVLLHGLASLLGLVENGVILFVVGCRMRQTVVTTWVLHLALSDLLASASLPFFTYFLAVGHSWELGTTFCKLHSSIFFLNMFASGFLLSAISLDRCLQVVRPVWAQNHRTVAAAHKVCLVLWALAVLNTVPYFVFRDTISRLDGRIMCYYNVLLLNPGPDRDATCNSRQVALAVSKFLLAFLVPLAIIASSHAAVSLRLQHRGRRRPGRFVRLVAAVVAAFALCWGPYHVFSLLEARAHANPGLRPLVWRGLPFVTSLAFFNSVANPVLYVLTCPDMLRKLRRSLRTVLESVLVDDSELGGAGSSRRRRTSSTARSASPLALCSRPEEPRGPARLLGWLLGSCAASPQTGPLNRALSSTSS
Put plainly: Human CRTH2 Receptor Binding Assay (whole cell, [3H]ramatroban competition). Also on record: two mammalian expression vectors that harbored human CRTH2 and G-alpha16 cDNAs; expressed in transfected cells. The following applies: CHO-K1 cells expressing human CRTH2 and G-alpha16; 20 nM [3H]ramatroban; 1 hour, room temperature. The source says:
A whole cell receptor binding assay using [^3H]ramatroban as the competing radioactive ligand was employed to evaluate the compound binding activity to human CRTH2. The radioactive ligand [^3H]ramatroban was synthesized according to Sugimoto et. al. (Eur. J. Pharmacol. 2005, 524, 30-37) to a specific activity of 42 Ci/mmol
A cell line stably expressing human CRTH2 was established by transfecting CHO-K1 cells with two mammalian expression vectors that harbored human CRTH2 and G-alpha16 cDNAs, respectively, using FuGene® 6 transfection reagent (from Roche). Stable clones expressing CRTH2 were selected by staining each clone with BM16 (BD Pharmingen™ from BD Biosciences, a division of Becton, Dickinson and Company), which is a rat monoclonal antibody to human CRTH2. The cells were maintained as monolayer cultures in Ham's F-12 medium containing 10% fetal bovine serum, 100 units/mL penicillin, 100 μg/mL streptomycin, 2 mM glutamine, 0.5 mg/mL G418 (geneticin) for CRTH2, and 0.2 mg/mL hygromycin-B (for G-alpha 16). For whole cell receptor binding assay, the monolayer cells were rinsed once with PBS (phosphate buffered saline), dissociated using ethylenediaminetetraacetate (Versene™ EDTA from Lonza Inc.), and suspended in PBS containing 10 mM MgCl2 and 0.06% BSA (bovine serum albumin) at 1.5×10^6 cells/mL.
The binding reactions (0.2 mL) were performed in 96-well plates at room temperature in PBS containing 1.5×10^5 cells, 10 mM MgCl2, 0.06% BSA, 20 nM [^3H]ramatroban, and test compound at various concentrations. After 1 hour of binding reactions, the cells were harvested on GF™/B filter microplates (microtiter plates with embedded glass fiber from PerkinElmer, Inc.) and washed 5 times with PBS using a Filtermate™ Harvester (a cell harvester that harvests and washes cells from microplates from PerkinElmer, Inc.). The radioactivities bound to the cells were determined using a microplate scintillation counter (TopCount® NXT, from PerkinElmer, Inc.) after adding 50 μL of Microscint™ 20 scintillation fluid (from PerkinElmer, Inc.) to each well of the filter plates. The radioactivity from non-specific binding was determined by replacing compound with 10 μM of 15(R)-15-methyl PGD2 (from Cayman Chemical Company) in the reaction mixtures. The radioactivity bound to the cells in the absence of compound (total binding) was determined by replacing compound with 0.25% of DMSO (dimethyl sulfoxide) in the reaction mixture. Specific binding data were obtained by subtracting the radioactivity of non-specific binding from each binding data.
The IC50 value is defined as the concentration of the tested compound that is required for 50% inhibition of total specific binding. In order to calculate the IC50 value, the percent inhibition data were determined for 7 concentrations for each compound. The percent inhibition for a compound at each concentration was calculated according to the following formula, [1-(specific binding in the presence of compound)/(total specific binding)]×100. The IC50 value was then obtained by fitting the percent inhibition data to a sigmoidal dose-response (4 parameter logistic) model in the XLfit® software Excel add-in program [from ID Business Solutions Ltd., model 205, where F(x)=(A+(B−A)/(1+((C/x)̂D)))].

Assay [2] deals with T1, human CRTH2. Put plainly: Calcium Flux Assay Using Fluorometric Imaging Plate Reader (FLIPR). The assay is classed as cell-based. More on the design: expressed in transfected cells; host or cells: CHO-K1 previously transfected with G-alpha 16. The settings on record: CHO-K1 cells with G-alpha 16 and human CRTH2; inhibition of DK-PGD2 ligand-induced Ca2+ flux. As to the method:
CHO-K1 cells previously transfected with G-alpha 16 were subsequently transfected with the human CRTH2 receptor and the neomycin resistance gene. Following selection in 800 μg/mL G418 (geneticin), individual clones were assayed for their receptor expression based on staining with an anti human CRTH2 IgG, followed by assaying for their response to 13,14-dihydro-15-keto Prostaglandin D2 (DK-PDG2) (ligand) in the Ca^2+ Flux assay. Positive clones were then cloned by limiting dilution cloning. The transfected cells were cultured in Ham's F-12 medium supplemented with 10% fetal bovine serum, 2 mM glutamine, 100 U/mL penicillin/100 μg/mL streptomycin, 200 μg/mL hygromycin B, and 800 μg/mL G418 (geneticin). Cells were harvested with trypsin-EDTA (trypsin-ethylenediaminetetraacetic acid) and counted using ViaCount® reagent (from Guava Technologies, Inc. which contains two DNA-binding dyes that enable the reagent user to distinguish between viable and non-viable cells). The cell suspension volume was adjusted to 2.5×10^5 cells/mL with complete growth media. Aliquots of 50 μL were dispensed into BD Falcon™ 384 well black/clear microplates (from BD Biosciences, a division of Becton, Dickinson and Company) and the microplates were placed in a 37° C. CO2 incubator overnight. The following day, the microplates were used in the assay.
Loading Buffer containing dye (from the FLIPR® Calcium 3 Assay Kit from Molecular Devices, a division of MDS Analytical Technologies and MDS Inc.) was prepared by dissolving the contents of one bottle into 200 mL Hank's Balanced Salt Solution containing 20 mM HEPES (4-(2-hydroxyethyl)-1-piperazineethanesulfonic acid) and 2.5 mM probenecid. Growth media was removed from the cell plates and 25 μL of Hank's Balanced Salt Solution (HBSS) containing 20 mM HEPES, 0.05% BSA and 2.5 mM probenecid was added to each well followed by 25 μL of diluted dye using a Multidrop dispenser. The plates were then incubated for 1 hour at 37° C.
During the incubation, test compound plates were prepared by adding 90 μL of HBSS/20 mM HEPES/0.005% BSA buffer to the 2 μL of serial diluted compounds. To prepare serial diluted compounds, 20 mM stocks of compounds were dissolved in 100% DMSO. The compound dilution plate was set up as follows: well #1 received 5 μL of compound plus 10 μL of DMSO. Wells 2-10 received 10 μL of DMSO. 5 μL was mixed and transferred from well #1 into well #2. 1:3 serial dilutions were continued out 10 steps. 2 μl of diluted compound was transferred into duplicate wells of a 384 well “assay plate” and then 90 μL of buffer was added.
After incubation, both the cell and “assay plate” plates were brought to the fluorometric imaging plate reader (FLIPR®) and 20 μL of the diluted compounds were transferred to the cell plates by the FLIPR®. Plates were then incubated for 1 hour at room temperature. After the 1 hour incubation, plates were returned to the FLIPR® and 20 μL of 4.5× concentrated ligand was added to the cell plates. During the assay, fluorescence readings were taken simultaneously from all 384 wells of the cell plate every 1.5 seconds. Five readings were taken to establish a stable baseline, then 20 μL of sample was rapidly (30 μL/sec) and simultaneously added to each well of the cell plate. The fluorescence was continuously monitored before, during and after sample addition for a total elapsed time of 100 seconds. Responses (increase in peak fluorescence) in each well following agonist addition were determined. The initial fluorescence reading from each well, prior to ligand stimulation, was used as a zero baseline value for the data from that well. The responses were expressed as % inhibition of the buffer control. […]
(In general: Calcium assays in cells follow changes in intracellular calcium, usually with a dye or a luminescent sensor.)

The structures appear in SMILES notation. A value given as a limit tells only on which side of the number the result lay.

The results in this text go back to patent US20120309796A1, “BENZOCYCLOHEPTENE ACETIC ACIDS” (priority 2011, published 2012).

Turning to `CS(=O)(=O)c1cccc(S(=O)(=O)NC2CCCCc3c(OCC(=O)O)cccc32)c1` (stereo not shown) [Example 5, [5-(3-Methanesulfonyl-benzenesulfonylamino)-6,7,8,9-tetrahydro-5H-benzocyclohepten-1-yloxy]-acetic acid], the IC50 at human CRTH2 [1] was 952 nM; at human CRTH2 [2], 581 nM.
The like results for `CC(C)c1cccc(-c2cccc(S(=O)(=O)NC3CCCCc4c(OCC(=O)O)cccc43)c2)c1` (stereo not shown) [Example 41, [5-(3′-Isopropyl-biphenyl-3-sulfonylamino)-6,7,8,9-tetrahydro-5H-benzocyclohepten-1-yloxy]-acetic acid] were, in that order, 226 nM and more than 5000 nM.
The like results for `CC(C)c1cccc(-c2ccc(S(=O)(=O)NC3CCCCc4c(OCC(=O)O)cccc43)nc2)c1` (stereo not shown) [Example 31, {5-[5-(3-Isopropyl-phenyl)-pyridine-2-sulfonylamino]-6,7,8,9-tetrahydro-5H-benzocyclohepten-1-yloxy}-acetic acid] were, in that order, 26.7 nM and 476 nM.
In the same order, the values of `O=C(O)COc1cccc2c1CCCCC2NS(=O)(=O)c1cc(Cl)cc(Cl)c1` (stereo not shown) [Example 2, [5-(3,5-Dichloro-benzenesulfonylamino)-6,7,8,9-tetrahydro-5H-benzocyclohepten-1-yloxy]-acetic acid] are 58.4 nM and 340 nM.
On to `Cc1cc(-c2ccc(S(=O)(=O)N(C)C3CCCCc4c(OCC(=O)O)cccc43)nc2)cc(C(C)(C)C)c1` (stereo not shown) [Example 36, (5-{[5-(3-tert-Butyl-5-methyl-phenyl)-pyridine-2-sulfonyl]-methyl-amino}-6,7,8,9-tetrahydro-5H-benzocyclohepten-1-yloxy)-acetic acid], for which the results for the IC50 on human CRTH2 [1] and at human CRTH2 [2] were 164 nM and 784 nM, respectively.
The like results for `CS(=O)(=O)c1cccc(-c2ccc(S(=O)(=O)NC3CCCCc4c(OCC(=O)O)cccc43)cc2)c1` (stereo not shown) [Example 29, [5-(3′-Methanesulfonyl-biphenyl-4-sulfonylamino)-6,7,8,9-tetrahydro-5H-benzocyclohepten-1-yloxy]-acetic acid] were, in that order, 9.1 nM and 60.6 nM.
On human CRTH2 [1], `CS(=O)(=O)c1cc(S(C)(=O)=O)cc(S(=O)(=O)NC2CCCCc3c(OCC(=O)O)cccc32)c1` (stereo not shown) [Example 10, [5-(3,5-Bis-methanesulfonyl-benzenesulfonylamino)-6,7,8,9-tetrahydro-5H-benzocyclohepten-1-yloxy]-acetic acid] showed an IC50 of 50.3 nM.
Same read-out and setting: the value for `CN(C1CCCCc2c(OCC(=O)O)cccc21)S(=O)(=O)c1ccc(-c2cccc(CCO)c2)cn1` (stereo not shown) [Example 38, [5-({5-[3-(2-Hydroxy-ethyl)-phenyl]-pyridine-2-sulfonyl}-methyl-amino)-6,7,8,9-tetrahydro-5H-benzocyclohepten-1-yloxy]-acetic acid] was 2120 nM.
On the same count and under the same terms, the figure for `CSc1cccc(-c2ccc(S(=O)(=O)N(C)C3CCCCc4c(OCC(=O)O)cccc43)cc2)c1` (stereo not shown) [Example 28, {5-[Methyl-(3′-methylsulfanyl-biphenyl-4-sulfonyl)-amino]-6,7,8,9-tetrahydro-5H-benzocyclohepten-1-yloxy}-acetic acid] is 603 nM; for `Cc1cncc(-c2ccc(S(=O)(=O)N(C)C3CCCCc4c(OCC(=O)O)cccc43)cc2)c1` (stereo not shown) [Example 26, (5-{Methyl-[4-(5-methyl-pyridin-3-yl)-benzenesulfonyl]-amino}-6,7,8,9-tetrahydro-5H-benzocyclohepten-1-yloxy)-acetic acid] it is 1500 nM; for `CS(=O)(=O)c1cc(C(F)(F)F)cc(S(=O)(=O)NC2CCCCc3c(OCC(=O)O)cccc32)c1` (stereo not shown) [Example 17, [5-(3-Methanesulfonyl-5-trifluoromethyl-benzenesulfonylamino)-6,7,8,9-tetrahydro-5H-benzocyclohepten-1-yloxy]-acetic acid] it is 11.4 nM.
Regarding `CC(C)c1cccc(-c2cccc(S(=O)(=O)N(C)C3CCCCc4c(OCC(=O)O)cccc43)c2)c1` (stereo not shown) [Example 42, {5-[(3′-Isopropyl-biphenyl-3-sulfonyl)-methyl-amino]-6,7,8,9-tetrahydro-5H-benzocyclohepten-1-yloxy}-acetic acid], the IC50 at human CRTH2 [1] came to 845 nM.
For the molecule `CC(C)c1cccc(-c2ccc(S(=O)(=O)N(C)C3CCCCc4c(OCC(=O)O)cccc43)cc2)c1` (stereo not shown) [Example 20, {5-[(3′-Isopropyl-biphenyl-4-sulfonyl)-methyl-amino]-6,7,8,9-tetrahydro-5H-benzocyclohepten-1-yloxy}-acetic acid], the IC50 on human CRTH2 [1] came to 106 nM.

What is called IC50 is the concentration needed to halve the response being measured.
